Holding throughout (format): binding
Assay [1] has as its target T1, STAT1 (Homo sapiens, UniProt P42224).
T1 sequence (P42224 1-750): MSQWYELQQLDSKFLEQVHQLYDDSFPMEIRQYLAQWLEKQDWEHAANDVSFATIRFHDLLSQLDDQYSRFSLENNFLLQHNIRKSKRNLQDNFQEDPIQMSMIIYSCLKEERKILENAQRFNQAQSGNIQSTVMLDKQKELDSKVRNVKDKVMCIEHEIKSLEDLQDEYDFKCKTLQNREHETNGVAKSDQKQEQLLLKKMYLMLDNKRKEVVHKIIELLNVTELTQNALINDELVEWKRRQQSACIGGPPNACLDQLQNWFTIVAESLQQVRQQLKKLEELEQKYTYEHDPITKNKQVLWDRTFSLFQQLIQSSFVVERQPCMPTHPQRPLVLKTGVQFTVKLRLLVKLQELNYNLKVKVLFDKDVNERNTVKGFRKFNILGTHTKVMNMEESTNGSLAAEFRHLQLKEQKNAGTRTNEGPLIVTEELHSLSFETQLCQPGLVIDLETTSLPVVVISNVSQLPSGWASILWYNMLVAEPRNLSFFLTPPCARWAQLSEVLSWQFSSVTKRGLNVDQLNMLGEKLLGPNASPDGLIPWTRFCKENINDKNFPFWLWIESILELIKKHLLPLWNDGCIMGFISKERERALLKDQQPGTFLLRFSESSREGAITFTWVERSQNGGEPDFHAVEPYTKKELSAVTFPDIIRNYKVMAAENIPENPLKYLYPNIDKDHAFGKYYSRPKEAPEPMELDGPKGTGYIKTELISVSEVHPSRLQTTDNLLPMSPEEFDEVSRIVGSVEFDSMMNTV
Kind of assay: Fluorescence polarization assay, STAT1.

Assay [2] has as its system STAT3. Kind of assay: Fluorescence polarization assay, STAT3. The following applies: at 40 µM.
Assay [3] has as its target T2, wild-type STAT5b (Homo sapiens, UniProt P51692).
T2 sequence (P51692 1-787): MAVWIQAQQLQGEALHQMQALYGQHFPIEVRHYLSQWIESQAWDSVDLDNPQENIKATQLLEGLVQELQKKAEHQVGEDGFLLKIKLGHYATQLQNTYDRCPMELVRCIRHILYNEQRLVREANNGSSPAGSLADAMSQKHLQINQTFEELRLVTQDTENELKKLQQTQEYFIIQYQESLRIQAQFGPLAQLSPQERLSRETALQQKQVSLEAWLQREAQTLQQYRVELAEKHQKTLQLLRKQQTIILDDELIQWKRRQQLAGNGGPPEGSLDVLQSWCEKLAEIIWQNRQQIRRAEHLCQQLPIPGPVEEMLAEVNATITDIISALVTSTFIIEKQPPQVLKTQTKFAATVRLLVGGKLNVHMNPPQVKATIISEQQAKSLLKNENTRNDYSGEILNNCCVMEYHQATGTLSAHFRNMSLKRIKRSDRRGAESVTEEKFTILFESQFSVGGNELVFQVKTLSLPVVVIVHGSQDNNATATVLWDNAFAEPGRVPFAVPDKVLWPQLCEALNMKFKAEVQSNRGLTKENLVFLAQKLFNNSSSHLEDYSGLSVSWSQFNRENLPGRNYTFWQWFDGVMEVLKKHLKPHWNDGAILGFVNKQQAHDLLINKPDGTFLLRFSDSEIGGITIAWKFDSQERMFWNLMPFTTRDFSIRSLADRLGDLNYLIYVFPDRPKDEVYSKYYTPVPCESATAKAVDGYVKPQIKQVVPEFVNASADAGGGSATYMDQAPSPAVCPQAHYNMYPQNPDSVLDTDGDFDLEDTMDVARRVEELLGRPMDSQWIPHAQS
Kind of assay: Isothermal titration calorimetry, wild-type STAT5b. The conditions noted are these: ITC, 25 °C, n = 3.

Assay [4] concerns the target T3, STAT6 (Homo sapiens, UniProt P42226).
T3 sequence (P42226 1-847): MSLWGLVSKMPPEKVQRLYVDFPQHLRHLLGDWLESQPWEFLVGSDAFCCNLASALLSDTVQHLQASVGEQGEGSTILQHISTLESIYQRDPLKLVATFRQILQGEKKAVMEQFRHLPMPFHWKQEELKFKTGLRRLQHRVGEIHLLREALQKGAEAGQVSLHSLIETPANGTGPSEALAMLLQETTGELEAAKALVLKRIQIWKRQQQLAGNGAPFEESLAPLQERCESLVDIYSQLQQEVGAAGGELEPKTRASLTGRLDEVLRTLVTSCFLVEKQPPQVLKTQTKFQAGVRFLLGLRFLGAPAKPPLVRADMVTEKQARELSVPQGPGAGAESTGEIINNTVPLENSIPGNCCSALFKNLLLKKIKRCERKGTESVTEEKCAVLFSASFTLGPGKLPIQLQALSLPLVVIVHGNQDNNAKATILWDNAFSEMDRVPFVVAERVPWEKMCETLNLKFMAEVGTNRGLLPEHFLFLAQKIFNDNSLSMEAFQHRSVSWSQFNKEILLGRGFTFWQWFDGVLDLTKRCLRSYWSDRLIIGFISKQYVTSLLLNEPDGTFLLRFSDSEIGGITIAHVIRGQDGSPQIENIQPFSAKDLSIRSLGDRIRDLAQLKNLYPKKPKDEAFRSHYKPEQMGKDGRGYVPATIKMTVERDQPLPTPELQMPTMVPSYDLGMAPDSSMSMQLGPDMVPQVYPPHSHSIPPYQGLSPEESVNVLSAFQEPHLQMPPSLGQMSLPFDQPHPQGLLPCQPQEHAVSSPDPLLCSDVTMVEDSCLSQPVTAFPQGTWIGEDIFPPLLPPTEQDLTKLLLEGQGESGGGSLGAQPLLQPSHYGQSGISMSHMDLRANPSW
Kind of assay: Fluorescence polarization assay, STAT6.

Setting [5] is: converted from IC50 using the published equation.

On to `O=C(COc1ccc(C(=O)Nc2ccc(Oc3ccccc3)cc2)cc1)NCc1ccc(OP(=O)(O)O)c(OP(=O)(O)O)c1` [compound 4, 4-((2-(4-((4-phenoxyphenyl)carbamoyl)phenoxy)acetamido)methyl)-1,2-phenylene bis(dihydrogen phosphate)], for which the Ki was found to be 22.8 ± 1 µM in assay [1] (setting [5]) and 11.7 ± 1.2 µM in assay [4] (setting [5]). In addition, the IC50 was found to be 46 ± 2 µM in assay [1] (fluorescence polarization) and 23.7 ± 2.5 µM in assay [4] (fluorescence polarization). Also, in assay [2], the STAT3 maximum inhibition is 30 ± 3%. In assay [3], the ΔH was -4.1 ± 0.5 kcal/mol. For the same compound, the “−TΔS” value in assay [3] was -4.8 ± 0.6 kcal/mol.

Source of the values: PMC5429769, “Rational development of Stafib-2: a selective, nanomolar inhibitor of the transcription factor STAT5b” (Scientific Reports, 2017).
